The conditions of data set [1]: undergoes hydrolytic degradation; cited from earlier work.
The nature of data set [2]: Stability in aqueous media (statements in the description). Type of data set: physicochemical. The conditions noted are these: aqueous phase of chromatography on C18 column.
Data set [3] in a line: Stability of guadecitabine sodium form A in methanol water (9/1 v/v) at 40° C. (HPLC contents). The class given is physicochemical. As to the method: Analytical HPLC Method Used for Measuring Guadecitabine Purity Column: 150×3.0 mm Luna Omega Polar C18, 1.6 μm at 40° C. Solvent A: 0.15 mL/l formic acid in water, pH adjusted with ammonia to 3.6. Solvent B: acetonitrile Gradient program: [table] [table] Example 23: Comparison of Guadecitabine Sodium Form A Stability in Water at 25° C. and Methanol Water (9/1 v/v) at 40° C.

Data set [4] is classed as physicochemical. The procedure: Analytical HPLC Method Used for Measuring Guadecitabine Purity
Column: 150×3.0 mm Luna Omega Polar C18, 1.6 μm at 40° C.
Solvent A: 0.15 mL/l formic acid in water, pH adjusted with ammonia to 3.6. Solvent B: acetonitrile Gradient program: […]
Example 23: Comparison of Guadecitabine Sodium Form A Stability in Water at 25° C. and Methanol Water (9/1 v/v) at 40° C.
In water stability of guadecitabine sodium form A was measured as follows.
Instrument method: autosampler temp. was set to 25° C. 10 mg of guadecitabine sodium form A was weighted in 2-mL vial in glovebox and 1 mL of water was added to have concentration exactly 10 mg/mL. Sample was injected freshly after preparation (0 min), 20 min after preparation (20 min) and afterwards every 40 min (duration of single analysis run).

This is an account of results in patent publication US20210147466A1, “IMPROVED PROCESSES FOR THE PREPARATION OF GUADECITABINE AND INTERMEDIATES THEREOF” (TEVA CZECH INDUSTRIES s.r.o., priority 2017, published 2021).

Read-outs that look alike come from different tables or passages of the source.

Take `Nc1ncn([C@H]2C[C@H](O)[C@@H](CO)O2)c(=O)n1` [Decitabine]: in data set [1], the “stability in aqueous media” value is listed as “unstable”.
On to `Nc1ncn([C@H]2C[C@H](OP(=O)(O)OC[C@H]3O[C@@H](n4cnc5c(=O)[nH]c(N)nc54)C[C@@H]3O)[C@@H](CO)O2)c(=O)n1` [guadecitabine, [(2R,3S,5R)-5-(2-amino-6-oxo-3H-purin-9-yl)-3-hydroxyoxolan-2-yl]methyl [(2R,3S,5R)-5-(4-amino-2-oxo-1,3,5-triazin-1-yl)-2-(hydroxymethyl)oxolan-3-yl] hydrogen phosphate], for which the “stability in aqueous phase” value in data set [2] is given as “not stable”. The guadecitabine degradation result in data set [3] (in methanol) is “significantly suppressed”.
With `Nc1ncn([C@H]2C[C@H](OP(=O)([O-])OC[C@H]3O[C@@H](n4cnc5c(=O)[nH]c(N)nc54)C[C@@H]3O)[C@@H](CO)O2)c(=O)n1.[Na+]` [guadecitabine sodium], the “HPLC contents (%) Degradant 2a” value in data set [4] and in data set [3] was less than 0.05% throughout. Also, the “HPLC contents (%) Degradant 2b” value in data set [4] and in data set [3] was less than 0.05% in each case. The “HPLC contents (%) Degradant 2c” value in data set [4] and in data set [3] was 0.14% each time. Besides, the “HPLC contents (%) Degradant 2d” value was 0.05% in data set [4] and 0.10% in data set [3]. Further, the “HPLC contents (%) guadecitabine sodium” value in data set [4] (Solution in DMSO, no time point (reference)) is 99.82%; in data set [4] (Solution in water, 10 mg/mL, 25° C., injection time point 0 min), 99.80%; in data set [4] (Solution in water, 10 mg/mL, 25° C., injection time point 20 min), 99.63%; in data set [4] (Solution in water, 10 mg/mL, 25° C., injection time point 40 min) it was 99.39%; in data set [4] (Solution in water, 10 mg/mL, 25° C., injection time point 80 min), 99.02%; in data set [4] (Solution in water, 10 mg/mL, 25° C., injection time point 120 min), 98.58%. In addition, the “HPLC contents (%) guadecitabine sodium” value is given as 98.16% in data set [4] (Solution in water, 10 mg/mL, 25° C., injection time point 160 min); 97.56% in data set [4] (Solution in water, 10 mg/mL, 25° C., injection time point 200 min); 97.11% in data set [4] (Solution in water, 10 mg/mL, 25° C., injection time point 240 min); 96.29% in data set [4] (Solution in water, 10 mg/mL, 25° C., injection time point 280 min); 99.76% in data set [3] (Suspension in methanol/water (9/1), 40° C., injection time point 240 min).
